# Results taken from ChEMBL document CHEMBL1201862, “PubChem BioAssay data set” (2004).
#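 Assay format: 96-well plates, 48-hour exposure. GI50 = concentration required for 50% inhibition of growth.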 Calls of active or inactive are those of the source. No stated cut-off is given here; in the data, active = GI50 up to about 1.1 µM and inactive = higher.
# How the values were obtained:
# Test in all cases: DTP human tumour cell line panel, 48 h
# [1] = test system: 786-0
# [2] = test system: A498
# [3] = test system: A549
# [4] = test system: ACHN
# [5] = test system: BT-549
# [6] = test system: CAKI-1
# [7] = test system: CCRF-CEM
# [8] = test system: COLO 205
# [9] = test system: DU-145
# [10] = test system: EKVX
# [11] = test system: HCC 2998
# [12] = test system: HCT-116
# [13] = test system: HCT-15
# [14] = test system: HOP-62
# [15] = test system: HOP-92
# [16] = test system: HT-29
# [17] = test system: Hs-578T
# [18] = test system: IGROV-1
# [19] = test system: KM12
# [20] = test system: LOX IMVI
# [21] = test system: M14
# [22] = test system: MCF7
# [23] = test system: MDA-MB-231
# [24] = test system: MDA-MB-435
# [25] = test system: MDA-N
# [26] = test system: MOLT-4
# [27] = test system: Malme-3M
# [28] = test system: NCI-H226
# [29] = test system: NCI-H23
# [30] = test system: NCI-H460
# [31] = test system: NCI-H522
# [32] = test system: NCI/ADR-RES
# [33] = test system: OVCAR-3
# [34] = test system: OVCAR-4
# [35] = test system: OVCAR-5
# [36] = test system: OVCAR-8
# [37] = test system: PC-3
# [38] = test system: RPMI-8226
# [39] = test system: RXF 393
# [40] = test system: SF-268
# [41] = test system: SF-295
# [42] = test system: SF-539
# [43] = test system: SK-MEL-28
# [44] = test system: SK-MEL-2
# [45] = test system: SK-MEL-5
# [46] = test system: SK-OV-3
# [47] = test system: SN12C
# [48] = test system: SNB-19
# [49] = test system: SNB-75
# [50] = test system: SW-620
# [51] = test system: T47D
# [52] = test system: TK-10
# [53] = test system: U-251
# [54] = test system: UACC-257
# [55] = test system: UACC-62
# [56] = test system: UO-31
# [57] = test system: K562
# [58] = test system: SR
structure (smiles),measurement,setting,value
Fc1ccc(C(OCCN2CCC3CCC(C2)N3C/C=C/c2cccs2)c2ccc(F)cc2)cc1 (stereo not drawn),GI50,[1],8.49 µM (inactive)
same,GI50,[2],9.06 µM (inactive)
same,GI50,[3],11 µM (inactive)
same,GI50,[4],11.8 µM (inactive)
same,GI50,[5],13.2 µM (inactive)
same,GI50,[6],10.2 µM (inactive)
same,GI50,[7],8.09 µM (inactive)
same,GI50,[8],1.96 µM (inactive)
same,GI50,[9],12.3 µM (inactive)
same,GI50,[10],4.41 µM (inactive)
same,GI50,[11],3.21 µM (inactive)
same,GI50,[12],3.45 µM (inactive)
same,GI50,[13],4.06 µM
same,GI50,[14],13.6 µM (inactive)
same,GI50,[15],6.25 µM (inactive)
same,GI50,[16],1.37 µM (inactive)
same,GI50,[17],12.1 µM (inactive)
same,GI50,[18],10.1 µM (inactive)
same,GI50,[19],4.44 µM (inactive)
same,GI50,[20],6.38 µM (inactive)
same,GI50,[21],4.25 µM (inactive)
same,GI50,[22],7.69 µM (inactive)
same,GI50,[23],9.31 µM (inactive)
same,GI50,[24],6.98 µM (inactive)
same,GI50,[25],10.3 µM (inactive)
same,GI50,[26],1.21 µM (inactive)
same,GI50,[27],6.03 µM (inactive)
same,GI50,[28],7.19 µM (inactive)
same,GI50,[29],8.34 µM (inactive)
same,GI50,[30],3.08 µM (inactive)
same,GI50,[31],5.02 µM (inactive)
same,GI50,[32],6.24 µM (inactive)
same,GI50,[33],10.6 µM (inactive)
same,GI50,[34],7.36 µM (inactive)
same,GI50,[35],13.1 µM (inactive)
same,GI50,[36],4.06 µM (inactive)
same,GI50,[37],5.75 µM (inactive)
same,GI50,[38],0.0133 µM (active)
same,GI50,[39],3.77 µM (inactive)
same,GI50,[40],12.2 µM (inactive)
same,GI50,[41],10.5 µM (inactive)
same,GI50,[42],10.6 µM (inactive)
same,GI50,[43],6.47 µM (inactive)
same,GI50,[44],10.7 µM (inactive)
same,GI50,[45],3.04 µM (inactive)
same,GI50,[46],12.9 µM (inactive)
same,GI50,[47],5.69 µM (inactive)
same,GI50,[48],13.9 µM (inactive)
same,GI50,[49],14.7 µM (inactive)
same,GI50,[50],5.98 µM (inactive)
same,GI50,[51],3.56 µM (inactive)
same,GI50,[52],11.1 µM (inactive)
same,GI50,[53],5.64 µM (inactive)
same,GI50,[54],3.66 µM (inactive)
same,GI50,[55],11.5 µM (inactive)
same,GI50,[56],12 µM (inactive)
O=C(O)C(Cc1cc(I)c(O)c(I)c1)C1CCCCC1 (stereo not drawn),GI50,[1],51.9 µM (inactive)
same,GI50,[2],21.3 µM (inactive)
same,GI50,[3],31.9 µM (inactive)
same,GI50,[4],30.3 µM (inactive)
same,GI50,[5],34.5 µM (inactive)
same,GI50,[6],30.6 µM (inactive)
same,GI50,[7],51.1 µM (inactive)
same,GI50,[9],33 µM (inactive)
same,GI50,[10],31.9 µM (inactive)
same,GI50,[11],27.2 µM (inactive)
same,GI50,[12],26.5 µM (inactive)
same,GI50,[13],31.7 µM
same,GI50,[14],24.5 µM (inactive)
same,GI50,[15],33.5 µM (inactive)
same,GI50,[16],30.8 µM (inactive)
same,GI50,[17],27.9 µM (inactive)
same,GI50,[18],27.5 µM (inactive)
same,GI50,[57],66.2 µM (inactive)
same,GI50,[19],30.4 µM (inactive)
same,GI50,[20],34 µM (inactive)
same,GI50,[21],45.5 µM (inactive)
same,GI50,[23],21.8 µM (inactive)
same,GI50,[24],60.8 µM (inactive)
same,GI50,[25],43.5 µM (inactive)
same,GI50,[26],28.4 µM (inactive)
same,GI50,[27],37.7 µM (inactive)
same,GI50,[28],61.5 µM (inactive)
same,GI50,[29],24 µM (inactive)
same,GI50,[30],18.1 µM (inactive)
same,GI50,[31],29.3 µM (inactive)
same,GI50,[32],37.4 µM (inactive)
same,GI50,[33],15.6 µM (inactive)
same,GI50,[34],59.6 µM (inactive)
same,GI50,[35],49.2 µM (inactive)
same,GI50,[36],38.6 µM (inactive)
same,GI50,[37],18.3 µM (inactive)
same,GI50,[39],34.2 µM (inactive)
same,GI50,[40],36.2 µM (inactive)
same,GI50,[41],35.6 µM (inactive)
same,GI50,[43],59.7 µM (inactive)
same,GI50,[45],22.4 µM (inactive)
same,GI50,[47],32.2 µM (inactive)
same,GI50,[48],35.6 µM (inactive)
same,GI50,[49],37.6 µM (inactive)
same,GI50,[58],33.1 µM (inactive)
same,GI50,[50],58.9 µM (inactive)
same,GI50,[51],29.9 µM (inactive)
same,GI50,[52],24 µM (inactive)
same,GI50,[53],22.3 µM (inactive)
same,GI50,[54],45.3 µM (inactive)
same,GI50,[55],33.1 µM (inactive)
same,GI50,[56],45.7 µM (inactive)
